Assay [1] concerns T47D. Kind of assay: Inhibition of human progesterone receptor A protein expression transfected in human T47D cells at 25 nM by Western blot. Type of assay: functional, cell-based.
The subject of assay [2] is T47D. Put plainly: Inhibition of human progesterone receptor B protein expression transfected in human T47D cells at 25 nM by Western blot. Type of assay: functional, cell-based. On the technique in general: In western blotting, separated proteins are transferred to a membrane and probed.
Assay [3] relates to T47D. Put plainly: Inhibition of human progesterone receptor B protein expression transfected in human T47D cells at 200 nM by Western blot. Type of assay: functional.
In assay [4] the test system is T47D. Kind of assay: Increase in Ezrin mRNA expression in human T47D cells expressing human progesterone receptor by RT-PCR relative to untreated control. Type of assay: functional.
Assay [5] concerns T47D. Kind of assay: Induction of morphology changes in human T47D cells expressing human progesterone receptor assessed as increase in cell height by confocal microscopy. Type of assay: functional, cell-based.
Assay [6] relates to T47D. Kind of assay: Reduction in cell proliferation of human T47D cells expressing human progesterone receptor by FACS method. Type of assay: functional, cell-based. On the technique in general: Flow cytometry measures light scatter and fluorescence of single cells or particles in a stream.
In assay [7] the test system is T47D. Put plainly: Inhibition of human progesterone receptor B gene expression transfected in human T47D cells at 200 nM by RT-PCR. Type of assay: functional, cell-based.
In assay [8] the test system is T47D. Put plainly: Inhibition of human progesterone receptor A gene expression transfected in human T47D cells at 200 nM by RT-PCR. Type of assay: functional, cell-based.
For assay [9], the system named is T47D. Kind of assay: Inhibition of human progesterone receptor B protein expression transfected in human T47D cells at 200 nM in presence of 10 nM of estradiol by Western blot. Type of assay: functional, cell-based.
The subject of assay [10] is T47D. Kind of assay: Inhibition of human progesterone receptor A protein expression transfected in human T47D cells at 200 nM in presence of 10 nM of estradiol by Western blot. Type of assay: functional, cell-based.
For assay [11], the system named is T47D. Put plainly: Inhibition of human progesterone receptor A protein expression transfected in human T47D cells at 200 nM by Western blot. Type of assay: functional.

Structures are written as SMILES. Active and inactive are the calls of the source. The calls are words filed in the database; no cut-off is given here.

One may read the inhibition as how much of the control response was suppressed. Turning to `Cc1cn(CC(=O)N(CCNC(=O)CN(CCNC(=O)CN(CCNCC(=O)N(CCNC(=O)CN(CCNC(=O)CN(CCNC(=O)CN(CCNC(=O)CN(CCNC(=O)CN(CCNC(=O)CN(CCNC(=O)CN(CCNC(=O)CN(CCNC(=O)CN(CCNC(=O)CN(CCNC(=O)CN(CCNC(=O)CNC(=O)[C@@H](N)CCCCN)C(=O)Cn2c(N)ccnc2=O)C(=O)Cn2cnc3c(N)ncnc32)C(=O)Cn2cc(C)c(=O)[nH]c2=O)C(=O)Cn2cnc3nc(N)[nH]c(=O)c32)C(=O)Cn2cnc3c(N)ncnc32)C(=O)Cn2c(N)ccnc2=O)C(=O)Cn2cnc3nc(N)[nH]c(=O)c32)C(=O)Cn2cnc3c(N)ncnc32)C(=O)Cn2c(N)ccnc2=O)C(=O)Cn2cc(C)c(=O)[nH]c2=O)C(=O)Cn2cnc3nc(N)[nH]c(=O)c32)C(=O)Cn2cnc3nc(N)[nH]c(=O)c32)C(=O)Cn2cnc3c(N)ncnc32)C(=O)Cn2c(N)ccnc2=O)CC(=O)NCCN(CC(=O)NCCN(CC(=O)NCCN(CC(=O)NCCN(CC(=O)N[C@@H](CCCCN)C(=O)O)C(=O)Cn2c(N)ccnc2=O)C(=O)Cn2c(N)ccnc2=O)C(=O)Cn2c(N)ccnc2=O)C(=O)Cn2c(N)ccnc2=O)c(=O)[nH]c1=O`, the inhibition entry in the assay with T47D [1] and in the assay on T47D [2] was “Active” in each case.

`Cc1cn(CC(=O)N(CCNC(=O)CN(CCNC(=O)CNC(=O)[C@H](N)CCCCN)C(=O)Cn2c(N)ccnc2=O)CC(=O)NCCN(CC(=O)NCCN(CC(=O)NCCN(CC(=O)NCCN(CC(=O)NCCN(CC(=O)NCCN(CC(=O)NCCN(CC(=O)NCCN(CC(=O)NCCN(CC(=O)NCCN(C(=O)CNCCN(CC(=O)NCCN(CC(=O)NCCN(CC(=O)NCCN(CC(=O)NCCN(CC(=O)NCCN(CC(=O)NCCN(CC(=O)N[C@@H](CCCCN)C(=O)O)C(=O)Cn2c(N)ccnc2=O)C(=O)Cn2cnc3nc(N)[nH]c(=O)c32)C(=O)Cn2c(N)ccnc2=O)C(=O)Cn2c(N)ccnc2=O)C(=O)Cn2cc(C)c(=O)[nH]c2=O)C(=O)Cn2c(N)ccnc2=O)C(=O)Cn2cnc3c(N)ncnc32)C(=O)Cn2c(N)ccnc2=O)C(=O)Cn2cnc3nc(N)[nH]c(=O)c32)C(=O)Cn2cc(C)c(=O)[nH]c2=O)C(=O)Cn2c(N)ccnc2=O)C(=O)Cn2cnc3c(N)ncnc32)C(=O)Cn2c(N)ccnc2=O)C(=O)Cn2c(N)ccnc2=O)C(=O)Cn2cnc3c(N)ncnc32)C(=O)Cn2cnc3nc(N)[nH]c(=O)c32)C(=O)Cn2cc(C)c(=O)[nH]c2=O)c(=O)[nH]c1=O`: the inhibition entry in the assay on T47D [1] and in the assay on T47D [2] was “inactive” in each case.

As to `Cc1cn(CC(=O)N(CCNC(=O)CN(CCNC(=O)CN(CCNC(=O)CNC(=O)[C@@H](N)CCCCN)C(=O)Cn2cc(C)c(=O)[nH]c2=O)C(=O)Cn2cnc3c(=O)[nH]c(N)nc32)CC(=O)NCCN(CC(=O)NCCN(CC(=O)NCCN(CC(=O)NCCN(CC(=O)NCCN(CC(=O)NCCN(CC(=O)NCCN(CC(=O)NCCN(CC(=O)NCCN(CC(=O)NCCN(CC(=O)NCCN(CC(=O)NCCN(CC(=O)NCCN(CC(=O)NCCN(CC(=O)NCCN(CC(=O)NCCN(CC(=O)N[C@@H](CCCCN)C(=O)O)C(=O)Cn2ccc(N)nc2=O)C(=O)Cn2cnc3c(=O)[nH]c(N)nc32)C(=O)Cn2cnc3c(N)ncnc32)C(=O)Cn2ccc(N)nc2=O)C(=O)Cn2cnc3c(N)ncnc32)C(=O)Cn2ccc(N)nc2=O)C(=O)Cn2ccc(N)nc2=O)C(=O)Cn2cc(C)c(=O)[nH]c2=O)C(=O)Cn2cnc3c(=O)[nH]c(N)nc32)C(=O)Cn2cnc3c(N)ncnc32)C(=O)Cn2ccc(N)nc2=O)C(=O)Cn2ccc(N)nc2=O)C(=O)Cn2cnc3c(=O)[nH]c(N)nc32)C(=O)Cn2cnc3c(=O)[nH]c(N)nc32)C(=O)Cn2cc(C)c(=O)[nH]c2=O)C(=O)Cn2ccc(N)nc2=O)c(=O)[nH]c1=O`, the inhibition at 0.2 µM with T47D [3] and in the assay on T47D [11] was 75% throughout. Also, the inhibition entry in the assay with T47D [1], with T47D [9], in the assay with T47D [10] and in the assay with T47D [2] was “Active” each time. Besides, the “fold change (FC)” value with T47D [4] is recorded as 5. For the same compound, the outcome in the assay on T47D [5] and in the assay on T47D [6] was Active. Further, the inhibition entry in the assay with T47D [7] and with T47D [8] was “inactive” in each case.

For the compound `Cc1cn([C@@H]2O[C@H](COP(=O)(O)O[C@H]3[C@@H](O)[C@H](n4cnc5c(=O)[nH]c(N)nc54)O[C@@H]3COP(=O)(O)O[C@H]3[C@@H](O)[C@H](n4ccc(=O)[nH]c4=O)O[C@@H]3COP(=O)(O)O[C@H]3[C@@H](O)[C@H](n4cnc5c(N)ncnc54)O[C@@H]3COP(=O)(O)O[C@H]3C[C@H](n4ccc(N)nc4=O)O[C@@H]3COP(=O)(O)O[C@H]3[C@@H](O)[C@H](n4ccc(=O)[nH]c4=O)O[C@@H]3COP(=O)(O)O[C@H]3C[C@H](n4cnc5c(=O)[nH]c(N)nc54)O[C@@H]3COP(=O)(O)O[C@H]3[C@@H](O)[C@H](N4CC=C(N)NC4=O)O[C@@H]3COP(=O)(O)O[C@H]3[C@@H](O)[C@H](n4ccc(=O)[nH]c4=O)O[C@@H]3COP(=O)(O)O[C@H]3[C@@H](O)[C@H](n4cnc5c(=O)[nH]c(N)nc54)O[C@@H]3COP(=O)(O)O[C@H]3[C@@H](O)[C@H](n4cnc5c(N)ncnc54)O[C@@H]3COP(=O)(O)O[C@H]3[C@@H](O)[C@H](n4ccc(N)nc4=O)O[C@@H]3COP(=O)(O)O[C@H]3[C@@H](O)[C@H](n4ccc(N)nc4=O)O[C@@H]3COP(=O)(O)O[C@H]3[C@@H](O)[C@H](n4ccc(=O)[nH]c4=O)O[C@@H]3COP(=O)(O)O[C@H]3C[C@H](n4cnc5c(=O)[nH]c(N)nc54)O[C@@H]3COP(=O)(O)O[C@H]3[C@@H](O)[C@H](n4cnc5c(N)ncnc54)O[C@@H]3COP(=O)(O)O[C@H]3[C@@H](O)[C@H](n4cnc5c(=O)[nH]c(N)nc54)O[C@@H]3COP(=O)(O)O[C@H]3[C@@H](O)[C@H](n4cnc5c(=O)[nH]c(N)nc54)O[C@@H]3COP(=O)(O)O[C@H]3[C@@H](O)[C@H](n4cnc5c(=O)[nH]c(N)nc54)O[C@@H]3COP(=O)(O)O[C@H]3[C@@H](O)[C@H](n4cnc5c(=O)[nH]c(N)nc54)O[C@@H]3CO)[C@@H](OP(=O)(O)OC[C@H]3O[C@@H](n4cc(C)c(=O)[nH]c4=O)C[C@@H]3O)[C@H]2O)c(=O)[nH]c1=O`, the inhibition entry in the assay on T47D [1] and with T47D [2] was “Active” in each case.

As for `Cc1cn(CC(=O)N(CCNC(=O)CN(CCNC(=O)CN(CCNC(=O)CN(CCNC(=O)CN(CCNC(=O)CN(CCNC(=O)CN(CCNC(=O)CN(CCNC(=O)CN(CCNC(=O)CN(CCNC(=O)CN(CCNC(=O)CN(CCNC(=O)CN(CCNC(=O)CN(CCNC(=O)CN(CCNC(=O)CNC(=O)[C@@H](N)CCCCN)C(=O)Cn2ccc(N)nc2=O)C(=O)Cn2ccc(N)nc2=O)C(=O)Cn2cnc3c(N)ncnc32)C(=O)Cn2cnc3c(=O)[nH]c(N)nc32)C(=O)Cn2cc(C)c(=O)[nH]c2=O)C(=O)Cn2ccc(N)nc2=O)C(=O)Cn2ccc(N)nc2=O)C(=O)Cn2cnc3c(N)ncnc32)C(=O)Cn2ccc(N)nc2=O)C(=O)Cn2cnc3c(N)ncnc32)C(=O)Cn2cnc3c(=O)[nH]c(N)nc32)C(=O)Cn2ccc(N)nc2=O)C(=O)Cn2cc(C)c(=O)[nH]c2=O)C(=O)Cn2cnc3c(=O)[nH]c(N)nc32)CC(=O)NCCN(CC(=O)NCCN(CC(=O)NCCN(CC(=O)NCCN(CC(=O)N[C@@H](CCCCN)C(=O)O)C(=O)Cn2cc(C)c(=O)[nH]c2=O)C(=O)Cn2ccc(N)nc2=O)C(=O)Cn2cnc3c(N)ncnc32)C(=O)Cn2ccc(N)nc2=O)c(=O)[nH]c1=O`, the inhibition at 0.2 µM in the assay on T47D [3] and with T47D [11] was 75% in each case. In the assay with T47D [4], the “fold change (FC)” value was determined as 3.5. Moreover, the result with T47D [5] and with T47D [6] was Active. In addition, the inhibition entry with T47D [7] and in the assay on T47D [8] was “inactive” each time. Moreover, the inhibition entry with T47D [9] and with T47D [10] was “Active” in each case.

In the case of `Cc1cn(CC(=O)N(CCNC(=O)CN(CCNC(=O)CN(CCNC(=O)CN(CCNC(=O)CN(CCNC(=O)CN(CCNC(=O)CNC(=O)[C@@H](N)CCCCN)C(=O)Cn2cc(C)c(=O)[nH]c2=O)C(=O)Cn2cnc3c(=O)[nH]c(N)nc32)C(=O)Cn2cnc3c(N)ncnc32)C(=O)Cn2cnc3c(=O)[nH]c(N)nc32)C(=O)Cn2ccc(N)nc2=O)CC(=O)NCCN(CC(=O)NCCN(CC(=O)NCCN(CC(=O)NCCN(CC(=O)NCCN(CC(=O)NCCN(CC(=O)NCCN(CC(=O)NCCN(CC(=O)NCCN(CC(=O)NCCN(CC(=O)NCCN(CC(=O)NCCN(CC(=O)NCCN(CC(=O)NC(CCCCN)C(=O)O)C(=O)Cn2cc(C)c(=O)[nH]c2=O)C(=O)Cn2cnc3c(=O)[nH]c(N)nc32)C(=O)Cn2cnc3c(=O)[nH]c(N)nc32)C(=O)Cn2cnc3c(=O)[nH]c(N)nc32)C(=O)Cn2cnc3c(N)ncnc32)C(=O)Cn2cnc3c(N)ncnc32)C(=O)Cn2cnc3c(N)ncnc32)C(=O)Cn2ccc(N)nc2=O)C(=O)Cn2cnc3c(=O)[nH]c(N)nc32)C(=O)Cn2cnc3c(=O)[nH]c(N)nc32)C(=O)Cn2cnc3c(N)ncnc32)C(=O)Cn2cnc3c(N)ncnc32)C(=O)Cn2cnc3c(=O)[nH]c(N)nc32)c(=O)[nH]c1=O` (stereo not given in full), the inhibition at 0.2 µM with T47D [3] and in the assay with T47D [11] was 75% each time. Besides, the “fold change (FC)” value in the assay with T47D [4] was found to be 8. For the same compound, the outcome in the assay with T47D [5] and with T47D [6] was Active. Also, the inhibition result in the assay with T47D [7] and with T47D [8] was “inactive” in each case. Moreover, the inhibition result in the assay on T47D [9] and with T47D [10] was “Active” each time.
